From US20260259169A1, “BETA-LACTAMASE SUBSTRATE COMPOUNDS AND ELECTROCHEMICAL DETECTION METHODS USING THEM” (priority 2023, published 2026)

Key:
[1] = system: bacteria strains that produce NDM; assay: Amperometric detection in blood culture; assay type: cell-based; settings: CF3 6.0 mM, HMRZ-86 1.2 mM
Procedure: (§1) The possibility of the beta-lactamase substrate compounds to detect bacteria strains producing different beta-lactamases was tested for the reference HMRZ-86 of example 1 (at 1.2 mM) and the beta-lactamase substrate compound with R being 2-nitro-4-cyano of Example 1 (at 2.4 mM). […] Consequently, amperometric voltammetry of the negative control with ATCC should give an oxidation current of 0 nA for the measurement to be valid.
(§2) The beta-lactamase with group β being CF3 (6.0 mM), as well as the reference HMRZ-86 (1.2 mM) were also tested with blood cultures comprising bacteria strains producing the carbapenemase KPC type, the metallo-beta-lactamase VIM type and the metallo-beta-lactamase NDM type, as well as a blood culture comprising no bacteria strains producing beta-lactamases (negative control ATCC).

[2] = system: bacteria strains that produce VIM type; assay: Amperometric detection in blood culture; assay type: cell-based; settings: CF3 6.0 mM, HMRZ-86 1.2 mM
Procedure: as §1, §2

CTXM = assay: Amperometric detection of beta-lactamase type producing bacteria strains; assay type: cell-based; settings: 6.0 mM substrate, HMRZ-86 1.2 mM; qualitative
Procedure: (§3) The possibility to detect different beta-lactamase type producing bacteria strains was also tested. As reference, a reference medium comprising 1.2 mM beta-lactamase substrate compound HMRZ-86 was prepared as well.

OXA-40 [3] = assay: as above; assay type: cell-based; settings: 6.0 mM substrate, HMRZ-86 1.2 mM; qualitative
Procedure: as §3

OXA-48 [4] = assay: as above; assay type: cell-based; settings: 6.0 mM substrate, HMRZ-86 1.2 mM; qualitative
Procedure: as §3

OXA-58 [5] = assay: as above; assay type: cell-based; settings: 6.0 mM substrate, HMRZ-86 1.2 mM; qualitative
Procedure: as §3

CTX-M-2 = CTX-M-2 (Salmonella typhimurium, UniProt P74841); assay: Reactivity with recombinant enzyme, amperometric; assay type: biochemical; settings: class A ESBL, protein; CF3 compound 2.4 mM, HMRZ-86 1.2 mM; 10 minutes at 37° C.
CTX-M-14 = CTX-M-14 (Escherichia coli, UniProt Q9L5C7); assay: Reactivity with recombinant enzyme, amperometric; assay type: biochemical; settings: class A ESBL, protein; CF3 compound 2.4 mM, HMRZ-86 1.2 mM; 10 minutes at 37° C.
CTX-M-25 = CTX-M-25 (Escherichia coli, UniProt Q8KSA6); assay: Reactivity with recombinant enzyme, amperometric; assay type: biochemical; settings: class A ESBL, protein; CF3 compound 2.4 mM, HMRZ-86 1.2 mM; 10 minutes at 37° C.
KPC-31 = KPC-31 (Klebsiella pneumoniae, UniProt Q9F663, D178Y/H272Y); assay: Reactivity with recombinant enzyme, amperometric; assay type: biochemical; settings: class A carbapenemase, protein, CF3 compound 2.4 mM, HMRZ-86 1.2 mM, 10 minutes at 37° C.
IMP-1 = IMP-1 (Serratia marcescens, UniProt P52699); assay: Reactivity with recombinant enzyme, amperometric; assay type: biochemical; settings: class B metallo-beta-lactamase, protein; CF3 compound 2.4 mM, HMRZ-86 1.2 mM; 10 minutes at 37° C.
IMP-3 = assay: Reactivity with recombinant enzyme, amperometric; assay type: biochemical; settings: class B metallo-beta-lactamase, protein; CF3 compound 2.4 mM, HMRZ-86 1.2 mM; 10 minutes at 37° C.
IMP-4 = assay: Reactivity with recombinant enzyme, amperometric; assay type: biochemical; settings: class B metallo-beta-lactamase, protein; CF3 compound 2.4 mM, HMRZ-86 1.2 mM; 10 minutes at 37° C.
IMP-16 = assay: Reactivity with recombinant enzyme, amperometric; assay type: biochemical; settings: class B metallo-beta-lactamase, protein; CF3 compound 2.4 mM, HMRZ-86 1.2 mM; 10 minutes at 37° C.
IMP-22 = assay: Reactivity with recombinant enzyme, amperometric; assay type: biochemical; settings: class B metallo-beta-lactamase, protein; CF3 compound 2.4 mM, HMRZ-86 1.2 mM; 10 minutes at 37° C.
IMP-61 = assay: Reactivity with recombinant enzyme, amperometric; assay type: biochemical; settings: class B metallo-beta-lactamase, protein; CF3 compound 2.4 mM, HMRZ-86 1.2 mM; 10 minutes at 37° C.
VIM-5 = assay: Reactivity with recombinant enzyme, amperometric; assay type: biochemical; settings: class B metallo-beta-lactamase, protein; CF3 compound 2.4 mM, HMRZ-86 1.2 mM; 10 minutes at 37° C.
VIM-11 = assay: Reactivity with recombinant enzyme, amperometric; assay type: biochemical; settings: class B metallo-beta-lactamase, protein; CF3 compound 2.4 mM, HMRZ-86 1.2 mM; 10 minutes at 37° C.
VIM-13 = assay: Reactivity with recombinant enzyme, amperometric; assay type: biochemical; settings: class B metallo-beta-lactamase, protein; CF3 compound 2.4 mM, HMRZ-86 1.2 mM; 10 minutes at 37° C.
OXA-40 [6] = assay: Reactivity with recombinant enzyme, amperometric; assay type: biochemical; settings: class D carbapenemase, protein; CF3 compound 2.4 mM, HMRZ-86 1.2 mM; 10 minutes at 37° C.
OXA-48 [7] = assay: Reactivity with recombinant enzyme, amperometric; assay type: biochemical; settings: class D carbapenemase, protein; CF3 compound 2.4 mM, HMRZ-86 1.2 mM; 10 minutes at 37° C.
OXA-58 [8] = assay: Reactivity with recombinant enzyme, amperometric; assay type: biochemical; settings: class D carbapenemase, protein; CF3 compound 2.4 mM, HMRZ-86 1.2 mM; 10 minutes at 37° C.
OXA-213 = assay: Reactivity with recombinant enzyme, amperometric; assay type: biochemical; settings: class D carbapenemase, protein; CF3 compound 2.4 mM, HMRZ-86 1.2 mM; 10 minutes at 37° C.
[9] = system: AmpC positive clinical strains; assay: Reactivity with AmpC positive clinical strains, amperometric; assay type: cell-based, 11 different species; settings: 30 strains, colonies in TPTZ buffer, 10 minutes at 37° C.
Procedure: The reactivities of HMRZ-86 and the CF3 (β)/4-cyanophenyl (R) [formula (I)] compounds for enzymes from Ambler classes C (AmpC cephalosporinases) were analyzed with AmpC positive clinical strains previously characterized by sequencing. These strains correspond to 11 different species, 24 different enzymes and 2 mechanisms of enzyme production [HCASE (hyperproductive) and CASEP (plasmid mediated (See Table 2) Table 2 represents the list of AmpC (Ambler class C cephalosporinases) positive clinical strains tested with the HMRZ-86 and the CF3 (β)/4-cyanophenyl (R) [formula (I)] compounds.
Colonies from 30 AmpC positive clinical strains collected from solid culture medium were diluted in a standard TPTZ buffer. […] A negative clinical strain and an positive one (CTX-M) were analyzed as […].

OXA-163 = settings: class D carbapenemase, protein; CF3 compound 2.4 mM, HMRZ-86 1.2 mM; 10 minutes at 37° C.

Row | SMILES | detection (oxidation current) [1] | detection (oxidation current) [2] | detection (oxidation current) (CTXM) | detection (oxidation current) (OXA-40 [3]) | detection (oxidation current) (OXA-48 [4]) | detection (oxidation current) (OXA-58 [5]) | reactivity (detection) (CTX-M-2) | reactivity (detection) (CTX-M-14) | reactivity (detection) (CTX-M-25) | reactivity (detection) (IMP-1) | reactivity (detection) (IMP-3) | reactivity (detection) (IMP-4) | reactivity (detection) (IMP-16) | reactivity (detection) (IMP-22) | reactivity (detection) (IMP-61) | reactivity (detection) (VIM-5) | reactivity (detection) (VIM-11) | reactivity (detection) (VIM-13) | reactivity (detection) (OXA-40 [6]) | reactivity (detection) (OXA-48 [7]) | other results
1 | N#Cc1ccc(C=CC2=C(C(=O)O)N3C(=O)C(NC(=O)C(F)(F)F)C3SC2)cc1 (stereo not drawn) [CF3] | do not detect | capable of detecting | capable of detecting | capable of detecting | capable of detecting | capable of detecting | Detected | Detected | Detected | Detected | Detected | Detected | Detected | Detected | Detected | Detected | Detected | Detected | Detected | Detected | reactivity (detection) (KPC-31; listed as CF3/4-cyanophenyl): not detected; reactivity (detection) (KPC-31; listed as CF3/4-cyanostyryl): Not detected; reactivity (detection) (OXA-58 [8]): Detected; reactivity (detection) (OXA-213): Detected; AmpC positive clinical strains detected as positive ([9]; substrate 2.4 mM): All; reactivity (detection) (OXA-163): Detected
2 | CC(C)(ON=C(C(=O)N[C@@H]1C(=O)N2C(C(=O)O)=C(C=Cc3ccc([N+](=O)[O-])cc3[N+](=O)[O-])CS[C@H]12)c1csc(N)n1)C(=O)O.O=C(O)C(F)(F)F [HMRZ-86, reference compound] | do not detect | capable of detecting | capable of detecting | does not detect | capable of detecting | does not detect | Detected | Detected | Detected | Detected | Detected | Detected | Detected | Detected | Detected | Detected | Detected | Detected | Not detected | Detected | reactivity (detection) (KPC-31): Detected; reactivity (detection) (OXA-58 [8]): Not detected; reactivity (detection) (OXA-213): Not detected; AmpC positive clinical strains detected as positive ([9]; HMRZ-86 1.2 mM): 53.3%; reactivity (detection) (OXA-163): Detected
